In patent US20240382438A1, “Calcium Channel Blockers and Methods Thereof” (University of Maryland, Eastern Shore, priority 2023, published 2024):
“Also recorded” adds a separate entry of the source.

Tests used:
human Cav3.2 = target: T1, human Cav3.2 (Homo sapiens, UniProt O95180); assay: Whole-cell patch clamp of T-type Ca2+ currents in Cav3.2-stable transfected HEK 293 cells; type: cell-based; settings: for Effect on whole cell capacitance / Effect on T-type Ca2+ current density: 50 μM; for Effect on T-type Ca2+ current density: vs non-treated cells
T1 construct: host or cells: HEK 293
T1 sequence (O95180 whole entry): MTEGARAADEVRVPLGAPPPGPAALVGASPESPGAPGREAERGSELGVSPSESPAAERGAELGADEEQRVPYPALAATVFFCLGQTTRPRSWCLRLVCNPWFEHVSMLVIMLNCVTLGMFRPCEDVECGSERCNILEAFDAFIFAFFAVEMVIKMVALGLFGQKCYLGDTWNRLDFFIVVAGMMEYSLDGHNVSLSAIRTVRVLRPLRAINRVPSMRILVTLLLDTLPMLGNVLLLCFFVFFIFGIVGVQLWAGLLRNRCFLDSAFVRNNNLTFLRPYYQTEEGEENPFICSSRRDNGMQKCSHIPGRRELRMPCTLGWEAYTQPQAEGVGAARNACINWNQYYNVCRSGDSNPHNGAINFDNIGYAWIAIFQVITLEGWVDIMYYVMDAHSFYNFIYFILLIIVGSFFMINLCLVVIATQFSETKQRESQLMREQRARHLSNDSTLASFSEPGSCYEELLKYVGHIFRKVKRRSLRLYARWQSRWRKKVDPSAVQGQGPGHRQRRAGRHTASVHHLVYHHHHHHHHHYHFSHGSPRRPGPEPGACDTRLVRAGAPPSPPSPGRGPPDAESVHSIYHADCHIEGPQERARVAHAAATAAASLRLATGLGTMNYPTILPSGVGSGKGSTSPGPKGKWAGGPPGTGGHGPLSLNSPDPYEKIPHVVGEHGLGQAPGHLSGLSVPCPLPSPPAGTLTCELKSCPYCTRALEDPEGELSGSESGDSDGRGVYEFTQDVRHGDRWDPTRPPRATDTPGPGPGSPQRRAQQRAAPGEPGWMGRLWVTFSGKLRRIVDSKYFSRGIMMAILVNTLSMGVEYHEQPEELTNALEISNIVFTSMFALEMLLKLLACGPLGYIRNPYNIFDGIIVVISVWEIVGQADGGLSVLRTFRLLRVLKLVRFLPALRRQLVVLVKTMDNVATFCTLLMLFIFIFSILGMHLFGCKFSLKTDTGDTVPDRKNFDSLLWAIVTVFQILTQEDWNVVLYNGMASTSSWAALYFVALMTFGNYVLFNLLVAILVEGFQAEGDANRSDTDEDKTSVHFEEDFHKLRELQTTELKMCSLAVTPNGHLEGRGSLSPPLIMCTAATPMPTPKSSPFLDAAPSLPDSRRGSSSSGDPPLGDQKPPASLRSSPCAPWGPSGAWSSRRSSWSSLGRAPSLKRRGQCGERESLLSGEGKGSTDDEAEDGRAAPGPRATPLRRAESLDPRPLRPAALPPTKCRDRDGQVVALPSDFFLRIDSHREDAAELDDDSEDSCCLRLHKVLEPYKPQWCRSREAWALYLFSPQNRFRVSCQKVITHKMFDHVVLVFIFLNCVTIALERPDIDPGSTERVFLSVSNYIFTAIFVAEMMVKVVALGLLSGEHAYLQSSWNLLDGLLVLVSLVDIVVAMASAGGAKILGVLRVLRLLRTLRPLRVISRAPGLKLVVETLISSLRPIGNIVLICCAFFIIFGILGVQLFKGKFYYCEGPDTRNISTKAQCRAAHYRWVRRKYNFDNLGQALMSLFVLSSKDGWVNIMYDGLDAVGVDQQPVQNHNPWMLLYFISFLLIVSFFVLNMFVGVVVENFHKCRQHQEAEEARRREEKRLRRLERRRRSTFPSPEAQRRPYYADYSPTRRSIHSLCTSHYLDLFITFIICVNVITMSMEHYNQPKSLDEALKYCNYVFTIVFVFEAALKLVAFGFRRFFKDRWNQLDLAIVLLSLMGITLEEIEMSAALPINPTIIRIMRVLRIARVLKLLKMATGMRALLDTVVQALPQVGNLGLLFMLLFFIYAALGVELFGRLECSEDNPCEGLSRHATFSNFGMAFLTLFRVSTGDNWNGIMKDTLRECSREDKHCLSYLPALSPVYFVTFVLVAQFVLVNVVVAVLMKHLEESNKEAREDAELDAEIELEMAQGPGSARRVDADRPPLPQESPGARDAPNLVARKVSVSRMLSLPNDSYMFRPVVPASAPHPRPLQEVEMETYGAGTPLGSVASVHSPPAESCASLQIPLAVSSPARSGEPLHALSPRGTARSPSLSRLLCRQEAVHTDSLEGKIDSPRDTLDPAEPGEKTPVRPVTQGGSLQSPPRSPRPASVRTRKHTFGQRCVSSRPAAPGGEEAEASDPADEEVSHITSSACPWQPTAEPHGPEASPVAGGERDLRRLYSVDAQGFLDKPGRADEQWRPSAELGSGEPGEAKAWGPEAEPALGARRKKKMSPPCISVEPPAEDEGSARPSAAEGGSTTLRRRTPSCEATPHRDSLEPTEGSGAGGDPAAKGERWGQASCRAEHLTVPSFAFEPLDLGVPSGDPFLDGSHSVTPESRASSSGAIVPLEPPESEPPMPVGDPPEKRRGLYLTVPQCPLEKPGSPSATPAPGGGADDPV
Experimental: Certain exemplary embodiments have undergone target identification studies to discover a better officious T-type calcium blocker. The fourteen trifluoromethylated N-benzamide enaminone compounds were synthesized, purified, and structure confirmed using gas chromatography/mass spectroscopy, nuclear magnetic resonance, and elemental analysis. Preliminary in vitro whole cell patch clamp experiments were performed to assess the inhibitory effects of several target analogs on voltage-activated calcium currents in human embryonic kidney (HEK-293) cells. Cav3.2 transfected HEK 293 cells were treated with 50 μM of test compounds and compared to the control group (none pretreated HEK 293 cells).
(§1) ND7/23 cells are derived from the fusion of mouse neuroblastoma and rat dorsal root ganglion cells, which generates a more homogeneous sensory neuron-like cell population. ND7/23 cells were purchased from Sigma-Aldrich (RRID:CVCL_4259). Culture and differentiation of ND7/23 cells was performed as previously described. Briefly, ND7/23 cells were cultured in DMEM/F12 culture media (Millipore, Cat. #DF-041-B), supplemented with 0.5% fetal bovine serum (Invitrogen, Cat. #10437010), db-cAMP (1 mM, Sigma-Aldrich, Cat. #D0627), and nerve growth factor (NGF, 50 ng/mL, Sigma-Aldrich, Ca. #N2513). To remove any proliferating cells, cultures were treated with uridine (20 μM, Sigma-Aldrich, Cat. #U3003) and fluorodeoxyuridine (20 μM, Sigma-Aldrich, Cat. #F0503). Cells were maintained in differentiation media without uridine and fluorodeoxyuridin after induction of differentiation. ND7/23 cells were maintained in differentiation media for ≤6 days. HEK 293 cells that were stabled transfected with the human Cav3.2 and Cav3.3 channel subunits were a gift of Dr. E. Perez-Reyes (University of Virginia). Cav3.2 (or Cav3.3)-stabled transfected HEK 293 cells were culture in DMEM/F12 culture media, supplemented with 5% fetal bovine serum, 50 U/mL penicillin and 50 μg/mL streptomycin. ND7/23 and HEK 293 cells were grown in an incubator at 37° C. in the presence of 5% CO2/95% air humidified atmosphere. Cells passaged less than 20 times were used in this work. Cells were grown in poly-D-lysine-coated glass coverslips for electrophysiological recordings.
Whole cell recordings were performed as previously described. A Nikon Eclipse Ti inverted microscope equipped with Hoffman optics and epifluorescence filters was used to visualize individual cells. Recordings were performed at room temperature (22-24° C.) using glass electrodes made from thin wall borosilicate glass (3-5 MΩ). For electrophysiological recordings of inward Ca^2+ currents, outward K^+ currents were eliminated by equimolar substitution of K^+ with Cs^+ in the pipette solution, whereas inward Na^+ currents were eliminated by the use of TEA ions in the external solution, which are unable to go through voltage-gated Na^+ channels. The pipette solution consisted of (in mM) CsCl (120), MgCl2(2), HEPES (10), EGTA (10), ATP (1), and GTP (0.1), pH 7.4 with CsOH. The composition of the normal external saline used for measurements of Ca^2+ currents was (in mM): tetraethylammonium chloride (TEACl, 145), CaCl2 (10), MgCl2(1), HEPES (10), and glucose (5), pH 7.4 adjusted with CsOH. Ca^2+ currents were generated by applying a 200-500 ms-depolarizing step to various potentials from a holding potential of −100 mV. The external solution used to measure Na^+ currents contained (in mM) NaCl (145), KCl (5.3), CaCl2 (0.5), MgCl2 (5.7), HEPES (13), and glucose (5), pH 7.4 adjusted with KOH. The composition of the CsCl-pipette solution used to record Na^+ currents was the same describe above. Na^+ currents were generated by applying a 20 ms-depolarizing step to various potentials from a holding potential of −100 mV. To assess drug-evoked changes on specific ionic conductances, current amplitudes were expressed as current densities as previously reported. […]

[1] = system: LNCaP prostate cancer cells; assay: XTT cell viability assay; type: cell-based; settings: 50 μM, 48 hours
Description: FIG. 15. Effect of RHB121, RHB62, and RHB95 on the cell viability of LNCaP prostate cancer cells. […] Cell viability was expressed as a percent of control LNCaP cells that received no treatment. Control groups were arbitrarily assigned a 100% viability value.
To assess the effect of RHB62, RHB95, and RHB121 on cell viability, the XTT assay was used.

[2] = system: voltage-activated Na^+ channels; assay: Whole-cell recording of Na+ currents in differentiated ND7/23 cells; type: cell-based, mouse neuroblastoma and rat dorsal root ganglion cells; settings: 50 μM
Experimental: as §1
Whole cell recordings were performed as previously described. A Nikon Eclipse Ti inverted microscope equipped with Hoffman optics and epifluorescence filters was used to visualize individual cells. Recordings were performed at room temperature (22-24° C.) using glass electrodes made from thin wall borosilicate glass (3-5 MΩ). For electrophysiological recordings of inward Ca^2+ currents, outward K^+ currents were eliminated by equimolar substitution of K^+ with Cs^+ in the pipette solution, whereas inward Na^+ currents were eliminated by the use of TEA ions in the external solution, which are unable to go through voltage-gated Na^+ channels. […] To assess drug-evoked changes on specific ionic conductances, current amplitudes were expressed as current densities as previously reported. […] Cell capacitance was determined by integrating the transient current evoked by a 10-mV voltage step from a holding potential of −60 mV.
A MULTICLAMP 700A amplifier and PCLAMP software (Axon Instruments) was used to deliver voltage commands and to perform data acquisition and analysis. […] Only cells with stable seals and series resistance (≤10 MΩ) were analyzed. […]

[3] = system: differentiated ND7/23 cells; assay: Intracellular calcium signals in differentiated ND7/23 cells stimulated with KCl or ionomycin; type: cell-based, mouse neuroblastoma and rat dorsal root ganglion cells; settings: 50 μM pre-treatment
Experimental: FIGS. 14A-C. Effect of RHB121 on the intracellular calcium signals generated in differentiated ND7/23 cells following stimulation with 30 mM extracellular K+ ions or the calcium ionophore ionomycin (10 μM). FIG. 14A. […] FIG. 14B. […] FIG. 14C. Relative changes in the intracellular calcium signal generated in differentiated ND7/23 cells by 30 mM KCl or Ionomycin (10 μM) in control or RHB121-treated cells. Control groups were arbitrarily assigned a 100% intracellular calcium signal.
To assess the effect of RHB121 on intracellular calcium signals, differentiated ND7/23 cells with a high potassium concentration (30 mM KCl) were simulated. The effect of the calcium ionophore Ionomycin, which also can increase intracellular calcium by a different mechanism, independently of T-type Ca^2+ channel activation, was also tested. Stimulation of differentiated ND7/23 with 30 mM KCl external solution caused a small increase in the intracellular calcium signal (FIG. 14A).

Effect on T-type Ca2+ current density (human Cav3.2; HEK 293-Cav3.2 cells) | Effect on T-type Ca2+ current density (human Cav3.2; HEK 293-Cav3.2 cells, listed as RHB-95) | Effect on activation time constant (τ) (human Cav3.2; 10 μM) | Shift of the steady-state inactivation curve (human Cav3.2; 10 μM) | Effect on whole cell capacitance (human Cav3.2; HEK 293-Cav3.2 cells, listed as RHB 121) | inhibition at 50 µM (human Cav3.2; HEK293, 50 μM, Cav3.2 transfected HEK 293 cells, read-out: Inhibition of calcium currents on T-type calcium channels) | Concentration dependence of the inhibition of T-type Ca2+ currents (human Cav3.2; HEK 293-Cav3.2 cells) | Structure (SMILES) | Effect on whole cell capacitance (human Cav3.2; HEK 293-Cav3.2 cells) | Effect on cell viability (XTT assay) [1] | Effect on Na+ current density [2] | Effect on intracellular calcium signal evoked with 30 mM KCl [3] | Effect on intracellular calcium signal evoked with Ionomycin (10 μM) [3]
significant reduction | No inhibitory effect |  |  |  |  |  | O=C1C=C(NC(=O)c2cccc(C(F)(F)F)c2)CC(C(F)(F)F)C1 (stereo not drawn) [RHB95] | no significant changes; also recorded: no effect on cell capacitance | do not affect the cell viability; also recorded: no effect on the cell viability |  |  | 
significant reduction |  | does not alter; also recorded: no effect | leftward shift | no significant changes | ~100% | concentration-dependent | O=C1C=C(NC(=O)c2cccc(OC(F)(F)F)c2)CC(C(F)(F)F)C1 (stereo not drawn) [RHB121, N-(3-oxo-5-(trifluoromethyl)cyclohex-1-en-1-yl)-3-(trifluoromethoxy)benzamide] | no effect on cell capacitance | do not affect the cell viability; also recorded: no effect on the cell viability | does not affect; also recorded: no effect on the Na^+ current densities | complete inhibition; also recorded: significant reduction | still evoked a significant response; also recorded: significant reduction

Structure (SMILES) | Effect on T-type Ca2+ current density (human Cav3.2; HEK 293-Cav3.2 cells) | Effect on T-type Ca2+ current density (human Cav3.2; HEK 293-Cav3.2 cells, listed as RHB-95) | Effect on activation time constant (τ) (human Cav3.2; 10 μM) | Shift of the steady-state inactivation curve (human Cav3.2; 10 μM) | Effect on whole cell capacitance (human Cav3.2; HEK 293-Cav3.2 cells, listed as RHB 121) | inhibition at 50 µM (human Cav3.2; HEK293, 50 μM, Cav3.2 transfected HEK 293 cells, read-out: Inhibition of calcium currents on T-type calcium channels) | Concentration dependence of the inhibition of T-type Ca2+ currents (human Cav3.2; HEK 293-Cav3.2 cells) | Effect on whole cell capacitance (human Cav3.2; HEK 293-Cav3.2 cells) | Effect on cell viability (XTT assay) [1] | Effect on Na+ current density [2] | Effect on intracellular calcium signal evoked with 30 mM KCl [3] | Effect on intracellular calcium signal evoked with Ionomycin (10 μM) [3]
Cc1cc(C)cc(C(=O)NC2=CC(=O)CC(C(F)(F)F)C2)c1 (stereo not drawn) [RHB62] | significant reduction; also recorded: reduction in the Ca^+2 current, with lower potency than RHB-77 |  |  |  |  |  |  | no significant changes; also recorded: no effect on cell capacitance | do not affect the cell viability; also recorded: no effect on the cell viability |  |  | 
